Paper PMC5584973, “Characterization of novel bangle lectin from Photorhabdus asymbiotica with dual sugar-binding specificity and its effect on host immunity” (PLoS Pathogens, 2017)
Read-outs that look alike come from different tables or passages of the source.

Legend:
[1] = biological target: T1, PHL (Photorhabdus asymbiotica, UniProt C7BLE4); format: binding; details: for Median: calculated from hexaplicates; for relative binding / preference on glycan array: PHL 200 μg/ml
[2] = biological target: T1, PHL; assay: Haemagglutination inhibition assay with PHL; format: cell-based; details: for Potency towards L-fucose: haemagglutination inhibition, from MIC; for MIC (minimal inhibitory concentration) of haemagglutination by PHL: microscopy
Protocol: A haemagglutination inhibition assay was performed to determine the specificity and semi-quantitative affinity of PHL interaction with the saccharides. A wide range of monosaccharides at concentrations from 50 mM to 0.5 mM were used for determining the lowest inhibiting concentration. A 20 μl mixture composed of 5 μl PHL (2mg/ml), 5 μl saccharide, and 10 μl 10% RBCs was prepared (all components of reaction were in PBS buffer). After 10 minutes, the reaction was observed using a Levenhuk microscope.

[3] = biological target: T1, PHL; assay: Isothermal titration calorimetry (ITC); format: binding
Protocol: ITC experiments were performed using an ITC200 calorimeter (Malvern, England). Experiments were performed at 25°C in buffer A (300 mM NaCl, 20 mM Tris/HCl, pH 7.5). Carbohydrate ligands were dissolved in the same buffer. Protein in the cell (50 μM) was titrated by consecutive addition (2 μl) of the ligand in the syringe (1.5–50 mM) while stirring at 1000 rpm. Control experiments performed with injections of buffer in the protein solution yielded insignificant signals. Integrated heat effects were analyzed by nonlinear regression using a single-site binding model in Origin 7 (Microcal). The experimental data fitted to a theoretical titration curve brought up stoichiometry (n), association constant Ka, and the enthalpy of binding ΔH. The other thermodynamic parameters such as free energy (ΔG) and […] (ΔS) were calculated from the equation ΔG = ΔH-TΔS = -RTlnKa, where T is the absolute temperature and R is the molar gas constant (8.314 J.mol^-1.K^-1). At least two independent titrations were carried out for each tested ligand.

[4] = biological target: T1, PHL; assay: SPR inhibition of PHL binding to immobilized L-fucoside; details: for Potency relative to L-Fuc: SPR inhibition, from IC50; for IC50: SPR, PHL 0.25 μM binding to immobilized L-fucoside, 25°C, read-out: IC50
Protocol: SPR inhibition experiments were performed using the same conditions described above. The PHL lectin (0.25 μM final concentration) was mixed with various concentrations of inhibitors (1M – 0.01 mM) and injected onto the sensor chip. Pure PHL lectin was used as a control (0% inhibition). The response of the lectin bound to the sugar surface at equilibrium was plotted against the concentration of inhibitor in order to determine IC50.

[5] = glycan array signal of PHL per printed glycan, microarray chip (Semiotic, Moscow; Slide number 10085636), 488 channel
[6] = glycan array signal of labelled PHL for the printed glycan/polysaccharide, Semiotic slide 10085636
[7] = ITC at 25°C, stoichiometry fixed to 3, read-out: KD (n = 3)
[8] = ITC at 25°C, stoichiometry fixed to 4, read-out: KD (n = 4)

T1 sequence (C7BLE4 1-369): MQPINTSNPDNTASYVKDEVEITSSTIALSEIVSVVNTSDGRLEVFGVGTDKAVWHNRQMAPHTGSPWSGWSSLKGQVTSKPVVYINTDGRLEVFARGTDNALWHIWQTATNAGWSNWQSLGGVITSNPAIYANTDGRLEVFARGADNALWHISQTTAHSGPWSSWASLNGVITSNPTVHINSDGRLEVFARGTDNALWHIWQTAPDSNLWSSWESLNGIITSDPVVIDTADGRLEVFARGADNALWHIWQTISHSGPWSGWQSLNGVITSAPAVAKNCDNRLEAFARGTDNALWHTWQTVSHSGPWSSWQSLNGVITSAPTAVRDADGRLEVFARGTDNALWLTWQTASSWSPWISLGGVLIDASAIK

Compound	Potency towards L-fucose [2]	Kd [3, 7] [µM]	Kd [3, 8] [µM]	Potency relative to L-Fuc [4]	also measured
4,6-O-Su2-GalNAcβ1-4-(3-O-Ac)GlcNAcβ-sp3					Median [1, 5]: 81
4,6-O-Su2-Galβ1-4GlcNAcβ-sp2					Median [1, 6]: 77
4-O-Su-Galβ1-4GlcNAcβ-sp3					Median [1, 6]: 77
6-H2PO3Manα-sp3					Median [1, 5]: 83
6-O-Su-Galβ1-3(6-O-Su)GlcNAcβ-sp2					Median [1, 5]: 87
6-O-Su-Galβ1-3GalNAcα-sp3					Median [1, 5]: 81
6-O-Su-Galβ1-3GlcNAcβ-sp3					Median [1, 6]: 73
CC(=O)N[C@H]1[C@H](OCCCN)O[C@H](CO)[C@@H](O[C@@H]2O[C@H](CO)[C@H](OS(=O)(=O)O)[C@H](OS(=O)(=O)O)[C@H]2O)[C@@H]1O [3,4-O-Su2-Galβ1-4GlcNAcβ-sp3]					Median [1, 5]: 87
COC[C@H]1O[C@@H](O[C@@H]2[C@@H](OC)[C@@H](OC)[C@H](Oc3ccc(OCCN)cc3)O[C@H]2C)[C@H](O)[C@@H](OC)[C@@H]1O [3,6-O-Me2-Glcβ1-4(2,3-O-Me2)Rhaα-O-(p-C6H4)-OCH2CH2NH2]					relative binding / preference on glycan array [1]: most preferred complex saccharide
CC(=O)N[C@H]1[C@@H](O[C@H]2[C@@H](O)[C@@H](CO)O[C@@H](O)[C@@H]2O[C@@H]2O[C@@H](C)[C@@H](O)[C@@H](O)[C@@H]2O)O[C@H](CO)[C@H](O)[C@@H]1O [BGA trisaccharide]	1.3	1450 ± 30	1380 ± 40	1.21	MIC (minimal inhibitory concentration) of haemagglutination by PHL [2]: 2500 µM; IC50 [4]: 300 µM
C[C@@H]1O[C@@H](O[C@H]2C(O)O[C@H](CO)[C@H](O)[C@@H]2O[C@H]2O[C@H](CO)[C@H](O)[C@H](O)[C@H]2O)[C@@H](O)[C@H](O)[C@@H]1O (some centres unmarked) [BGB trisaccharide]	10	570 ± 10	510 ± 10	5.15	relative binding / preference on glycan array [1]: strongest binding to human-related oligosaccharides; binding stoichiometry ([3]; ITC, fitted): ~4.3; Kd ([3]; ITC, stoichiometry not fixed, read-out: equilibrium dissociation constant): 490 µM; Potency relative to L-Fuc ([4]; listed as blood group B trisaccharide): ~5; IC50 [4]: 70 µM
CC(=O)N[C@H]1C(O)O[C@H](CO)[C@@H](O[C@@H]2O[C@H](CO)[C@H](O)[C@H](O)[C@H]2O[C@@H]2O[C@@H](C)[C@@H](O)[C@@H](O)[C@@H]2O)[C@@H]1O (some centres unmarked) [BGH trisaccharide]	<0.01	4440 ± 190	4350 ± 190	0.33	IC50 [4]: 1090 µM
O=C[C@H](O)[C@@H](O)[C@@H](O)[C@H](O)CO [D-Gal, D-galactose]	<0.01			< 0.01	Kd ([3]; KD (n = 3), ITC at 25°C, stoichiometry fixed to 3): 890 ± 20 µM; Kd ([3]; KD (n = 4), ITC at 25°C, stoichiometry fixed to 4): 830 ± 20 µM
CC(=O)N[C@@H]1[C@@H](O)[C@H](O)[C@@H](CO)O[C@@H]1O [D-GlcNAc, N-acetyl-D-glucosamine]	<0.01			0.01	IC50 [4]: 70500 µM
OC[C@H]1OC(O)[C@H](O)[C@@H](O)[C@@H]1O (stereo partly drawn) [D-Glc]	<0.01	3550 ± 150	3480 ± 150	< 0.01	
OC[C@H]1OC(O)[C@@H](O)[C@@H](O)[C@@H]1O (stereo partly drawn) [D-Man, D-mannose]	<0.01	44600 ± 2000	44400 ± 2000	< 0.01	
CC(=O)N[C@H]1C(O)O[C@H](CO)[C@@H](O)[C@@H]1O[C@@H]1O[C@@H](C)[C@@H](O)[C@@H](O)[C@@H]1O (some centres unmarked) [Fucα1-3GlcNAc]	1.3	3520 ± 210	3430 ± 210	0.53	MIC (minimal inhibitory concentration) of haemagglutination by PHL [2]: 2500 µM; IC50 [4]: 690 µM
